# Earlier results, collected in US20160375061A1, “COMPOSITION INVOLVED IN REGULATING ENERGY CYCLE, INFLAMMATION AND INSULIN RESISTANCE DYSFUNCTIONS, AND USE THEREOF PARTICULARLY IN CARDIOMETABOLIC DISEASES” (INTERNATIONAL NUTRITION RESEARCH COMPANY, priority 2013, published 2016).
# Conditions: mutation of the gene transporter OCT1; normal daily doses 1 to 3 g/day
structure (smiles),measurement,value
CN(C)C(=N)N=C(N)N [metformin],concentrations of metformin (saturation),0.03 ± 0.019 µg/mL
